Source: patent publication US20050075403A1, “Ambroxol for the treatment of inflammation in the pharynx” (priority 2003, published 2005)

Experiments:
IL-1 = conditions: human mononuclear cells stimulated with lipopolysaccharide; cited from earlier work
IL-10 / IL-12 balance = conditions: in vitro; cited from earlier work
[1] = test system: patients suffering from oro-pharyngeal catarrh accompanied by pain (sore throat); test: Example 1: placebo-controlled double-blind trial, two days of treatment with ambroxol lozenges; assay type: in vivo, human; conditions: up to six lozenges containing 20 mg ambroxol hydrochloride per day, vs placebo
Excerpt: The activity of ambroxol according to the invention is intended to be illustrated by the following three examples of clinical trials which investigate: 1) the […] of ambroxol lozenges by measurement of the redness symptom and 2) the efficacy and tolerability of ambroxol lozenges relative to placebo in relieving the symptoms of sore throat of at least moderately severe intensity in patients suffering from oro-pharyngeal catarrh accompanied by pain.
The first study was a multi-centre, prospective, placebo-controlled, randomized, double-blind trial involving two days of treatment with up to six lozenges containing 20 mg ambroxol hydrochloride per day.
109 patients were treated with ambroxol and 109 patients with placebo.

interleukin-2 (IL-2) = conditions: bronchoalveolar lavage cells and peripheral blood mononuclear cells stimulated with phythemagglutine; cited from earlier work
[2] = test system: tumor necrosis factor α (TNF-α); conditions: human mononuclear cells stimulated with lipopolysaccharide; cited from earlier work
interferon-γ (INF-γ) = conditions: bronchoalveolar lavage cells and peripheral blood mononuclear cells stimulated with phythemagglutine; cited from earlier work
TNF = conditions: in vitro; cited from earlier work

SMILES	production of IL-1 (IL-1)	inflammatory responses, local balance of IL-10 and IL-12 (IL-10 / IL-12 balance)	pain (primary endpoint) [1]	secretion of interleukin-2 (IL-2) (interleukin-2 (IL-2))	production of tumor necrosis factor α (TNF-α) [2]	secretion of interferon-γ (INF-γ) (interferon-γ (INF-γ))	release of inflammatory TNF (TNF)
Nc1c(Br)cc(Br)cc1CN[C@H]1CC[C@H](O)CC1 [ambroxol, trans-4-(2-amino-3,5-dibromobenzylamino)-cyclohexanole]	inhibit the production	enhance inflammatory responses	reduced statistically significantly	decrease the secretion	inhibit the production	decrease the secretion	–
CC(C(=O)O)c1cccc(C(=O)c2ccccc2)c1 (stereo not shown) [ketoprofen]	–	–	–	–	–	–	induce the release
